Assay results published in patent US20230285294A1, “METHOD AND SYSTEM FOR OTOTOPICAL DELIVERY USING NANOPARTICLES FOR EAR INFECTION DIAGNOSIS AND TREATMENT” (THE BOARD OF TRUSTEES OF THE LELAND STANFORD JUNIOR …, priority 2020, published 2023).

Tested on: eardrum
Assay: Confocal microscopy of ear sections: permeation of vesicles through the eardrum into the middle and inner ear
From the text: Further consideration of the various images in FIGS. 10A-11D one may observe from these confocal images of eardrum and vesicles penetration into the middle ear at different time points. To verify the permeation of the formulated vesicles through the eardrum we looked at the ear sections under confocal microscopy. […] (See FIG. 11B).
FIGS. 12A-14D relate to a series of confocal imaging at higher magnification of tympanic membrane.
FIG. 15A is showing imaging specificity of TF-RnB in red. FIG. 15B is showing imaging specificity to DAPI in blue. FIG. 15C is showing a color composite overlay of the images in FIGS. 15A and 15B.
These confocal images from inner ear show particle penetrations beyond the middle ear to inner ear. (FIG. 15C). As such, it is believed that potential applications of various embodiments of a liposomal nanoparticle may be used for inner ear drug delivery.

Compound: CCN(CC)c1ccc2c(-c3ccccc3C(=O)O)c3ccc(=[N+](CC)CC)cc-3oc2c1.[Cl-] [pure RhB, Rhodamine B]
- penetration of tympanic membrane layers (confocal imaging at higher magnification) (6 hours, FIGS. 12D and 14D): stays on the surface of tympanic membrane without any penetration
- penetration through eardrum into middle ear (confocal fluorescence) (6 h post-treatment): did not observe any fluorescent
